Tested on: mushroom-derived tyrosinase
Experiment: Tyrosinase activity inhibition (dopachrome formation from L-dopa, absorbance at 490 nm)
Assay type: biochemical
Settings: for tyrosinase inhibitory activity compared with comparative drugs: comparison in words; for Inhibitory Rate (%): 37° C., 30 minutes
Procedure: As test substances, the composition prepared in Example 1 and four types of anthocyanin crystal prepared in Example 2 were used. To a 96-well plate, 40 μl of mushroom-derived tyrosinase (125 unit/ml; dissolved in a 67 mmol/l phosphate buffer solution; […] Sigma), and 40 μl of an inhibitor solution were added. The plate was allowed to stand for 37° C. for 30 minutes. Then, the amount of dopachrome produced was determined by absorbance at 490 nm. Tyrosinase inhibitory activity was expressed as an inhibitory rate obtained by the following equation: Inhibitory Rate (%)=[([…]: absorbance at 490 nm of a control solution • B: absorbance at 490 nm of a control solution (blank solution) • C: absorbance at 490 nm of an anthocyanin solution • D: absorbance at 490 nm of an anthocyanin solution (blank solution).

| Compound | Inhibitory Rate (%) (inhibitor concentration 0.2 mM) | Inhibitory Rate (%) (inhibitor concentration 10 mM (2.7 mg/ml)) | tyrosinase inhibitory activity compared with comparative drugs |
| --- | --- | --- | --- |
| OC[C@H]1O[C@@H](Oc2cc3c(O)cc(O)cc3[o+]c2-c2cc(O)c(O)c(O)c2)[C@H](O)[C@@H](O)[C@@H]1O [D3G (Example 2), delphinidin-3-glucoside] | 67.5 | – | tyrosinase inhibitory activity at the same level as that found in comparative drugs such as kojic acid, arbutin |
| CC1O[C@@H](OC[C@H]2OC(Oc3cc4c(O)cc(O)cc4[o+]c3-c3cc(O)c(O)c(O)c3)[C@H](O)C(O)C2O)C(O)C(O)[C@H]1O (stereo partly shown) [D3R (Example 2), delphinidin-3-rutinoside] | 70.1 | – | tyrosinase inhibitory activity at the same level as that found in comparative drugs such as kojic acid, arbutin |
| OC[C@H]1O[C@@H](Oc2ccc(O)cc2)[C@H](O)[C@@H](O)[C@@H]1O [Arbutin, reference compound] | – | 10.4 | – |
| N[C@@H](CS)C(=O)O [L-Cysteine, reference compound] | 29.8 | – | – |

Second part, led by results:

| Inhibitory Rate (%) (inhibitor concentration 0.2 mM) | Inhibitory Rate (%) (inhibitor concentration 10 mM (2.7 mg/ml)) | Compound | tyrosinase inhibitory activity compared with comparative drugs |
| --- | --- | --- | --- |
| 13.2 | – | N[C@@H](CCC(=O)N[C@@H](CS)C(=O)NCC(=O)O)C(=O)O [Glutathione, reference compound] | – |
| 34.7 | – | O=c1cc(CO)occ1O [Kojic Acid, reference compound] | – |
| 45.0 | – | OC[C@H]1O[C@@H](Oc2cc3c(O)cc(O)cc3[o+]c2-c2ccc(O)c(O)c2)[C@H](O)[C@@H](O)[C@@H]1O [C3G (Example 2), cyanidin-3-glucoside] | tyrosinase inhibitory activity at the same level as that found in comparative drugs such as kojic acid, arbutin |
